# From patent publication US4242453A, “Cultivating streptomyces to produce an esterase inhibitor” (Zaidan Hojin Biseibutsu Kagaku Kenkyu Kai, priority 1977, dated 1980)
# “Also recorded” adds a separate entry of the source.
# Key:
# [1] = molecular target: esterase of pig pancreas; experiment: Inhibition of esterase (decomposition of p-nitrophenyl acetate by crude lipase preparation); type: biochemical
# Experimental: Thus, a commercially available, crude lipase preparation obtained from pig pancreas is dissolved to a concentration of 0.5% (by weight) in a 0.05 M phosphate buffered solution (pH 7.0) containing 0.2% "Triton X-100" (a trade name of an emulsifier consisting of a polyethyleneglycol alkylphenylether, a product of Rohm & Haas Co., U.S.A.). 0.03 ml of this lipase solution, 2.92 ml of 0.05 M phosphate buffered solution (pH 7.0) and 0.025 ml of a solution containing an esterastin sample to be assayed are mixed together, and the resulting mixture (2.975 ml) is warmed at 20° C. for 3 minutes and then admixed with 0.025 ml of a solution containing 10 mg/ml of p-nitrophenyl acetate in methanol to start the reaction of p-nitrophenyl acetate with lipase. After the reaction was effected at 20° C. for 30 minutes, absorbance (a) at 400 nm of the resulting reaction solution is measured. On the other hand, absorbance (b) at 400 nm of a control reaction solution obtained from the blank test using the 0.05 M phosphate buffered solution containing no esterastin is measured in the same way as above. Degree (%) of inhibition to esterase is calculated according to the following equation: [formula]
# [2] = test system: mice; experiment: Acute toxicity in mice; type: in vivo; details: 250 mg/kg, intraperitoneal injection
# Excerpt: As known substances which inhibit the esterase, there may be mentioned paradoxon and di-isopropyl fluorophosphate etc., which are highly toxic compounds. […] In these respects, it also can be confirmed that esterastin is a novel substance.
# [3] = test system: antibody-forming cells per spleen; experiment: Effect on formation of humoral antibody (Jerne plaque technique, SRBC-immunized mice); type: in vivo, dd/Y mice; details: for Number of antibody-forming cells per spleen (± S.E.): 10^8 SRBC i.v., day 4
# Experimental: Groups of dd/Y mice (5 female mice per group, 6-8 weeks old) were immunized with 10^8 red blood cells of sheep as the anitgen (in the form of a suspension in physiological saline solution) by intravenous injection to develop the immunity. At the same time, 1 mg, 250 mcg, 62.5 mcg or 15.6 mcg of esterastin (in the form of a suspension in 1% DMSO-saline) per mouse were intraperitoneally injected into the separate groups of mice, respectively. On the 4 days after the immunization, the mice treated were sacrificed, spleen was teased and the number of the antibody-forming cells present in each mouse spleen was enumerated according to the method of Jerne (see N. K. Jerne, A. A. Nordin and C. Henry: "The agar plaque technique for recognizing antibody-producing cells. Cell-bound Antibodies." ed. B. Amos and H. Koprowski pp. 109-122, Wister Institute Press. Philadelphia, 1963).
# [4] = test system: D.T.H. to SRBC in mice; experiment: Effect on cell-mediated immunity (Delayed Type Hypersensitivity to SRBC, footpad swelling); type: in vivo, dd/Y mice; details: for Increase of footpad thickness: 24 hours after eliciting injection of 10^8 SRBC
# Experimental: Effect of esterastin on the cellular immunity was tested according to a known Delayed Type Hypersensitivity (D.T.H.) technique (see P. H. Lagrange, G. B. Mackaness and T. E. Mille: "J. Exp. Med.", 139, 1529-1539 (1974)) using mice immunized with sheep red blood cells as the antigen.
# Thus, 10^8 sheep red blood cells suspended in 0.05 ml of physiological saline solution were immunized by subcutaneous injection to the one side of dd/Y mice hind footpad (5 mice per group, female, 6-weeks old) to establish delayed-type hypersensitivity. At the same time as this immunization, 1 mg/mouse, 250 mcg/mouse, 62.5 mcg/mouse or 15.6 mcg/mouse of esterastin were intraperitoneally injected to each test mouse. Four days later, 10^8 sheep rod blood cells were injected subcutaneously into the other side of each test mouse footpad for elicitation of D.T.H. response. 24 Hours after the eliciting injection, the thickness (in mm) of the footpad was measured to evaluate the degree of the swelling in the footpad which received the eliciting injection of sheep rod blood cells. The extent of the swelling in the footpad serves as a measure to estimate the cellular immunity involved.
# [5] = test system: cultured cells; experiment: Cell toxicity to cultured cells; type: cell-based; details: concentration of 10 mcg/ml
# [6] = Solubility in solvents; type: physicochemical
smiles,measurement,setting,value
CCCCCC=CCC=CCC(CC1OC(=O)C1CCCCCC)OC(=O)C(CC(N)=O)NC(C)=O (stereo not shown) [esterastin],IC50,"[1]; p-nitrophenyl acetate as the substrate, read-out: concentration giving 50% inhibition of esterase",0.041 nM
same,"ID50, dose giving 50% inhibition to esterase","[1]; p-nitrophenyl acetate substrate, pH 7.0, 20° C., 30 minutes",0.2 ng/mL
same,acute toxicity,[2],no toxicity was observed at all; also recorded: does not give any sympton of toxicity at all
same,Number of antibody-forming cells per spleen (± S.E.),[3]; 1 mg per mouse i.p.,"45,300 ± 3,300"
same,effect on number of the antibody forming cells (in words),[3]; 1 mg to 62.5 mcg to mice,remarkably reduces the number of the antibody forming cells
same,Number of antibody-forming cells per spleen (± S.E.),[3]; 15.6 mcg per mouse i.p.,"173,000 ± 19,600"
same,Number of antibody-forming cells per spleen (± S.E.),[3]; 62.5 mcg per mouse i.p.,"55,000 ± 5,700"
same,Number of antibody-forming cells per spleen (± S.E.),[3]; 250 mcg per mouse i.p.,"52,000 ± 2,300"
same,effect on development of D.T.H. (in words),[4]; 1 mg to 250 mcg to mice,remarkably suppresses the development of D.T.H.
same,Increase of footpad thickness,[4]; 1 mg/mouse i.p.,3.8 × 0.1 mm
same,Increase of footpad thickness,[4]; 62.5 mcg/mouse i.p.,6.2 × 0.1 mm
same,Increase of footpad thickness,[4]; 250 mcg/mouse i.p.,3.0 × 0.1 mm
same,cell toxicity to the cultured cells,[5],no cell toxicity
same,solubility in petroleum ether and hexane,[6]; petroleum ether and hexane,sparingly soluble; also recorded: substantially insoluble
same,solubility in organic solvents,"[6]; pyridine, dimethylsulfoxide, methanol, ethanol, acetone, ethyl acetate, butyl acetate, chloroform and benzene",readily soluble
same,solubility in water,[6]; water,sparingly soluble; also recorded: substantially insoluble
